Source: patent US20240217983A1, “GPR119 AGONISTS” (Kallyope, Inc., priority 2021, published 2024)
pEC50: −log10 of the molar value.

Biological target: T1, human GPR119 (hGPR119) (Homo sapiens, UniProt Q8TDV5)
T1 construct: expressed in transfected cells
T1 sequence (Q8TDV5 1-335): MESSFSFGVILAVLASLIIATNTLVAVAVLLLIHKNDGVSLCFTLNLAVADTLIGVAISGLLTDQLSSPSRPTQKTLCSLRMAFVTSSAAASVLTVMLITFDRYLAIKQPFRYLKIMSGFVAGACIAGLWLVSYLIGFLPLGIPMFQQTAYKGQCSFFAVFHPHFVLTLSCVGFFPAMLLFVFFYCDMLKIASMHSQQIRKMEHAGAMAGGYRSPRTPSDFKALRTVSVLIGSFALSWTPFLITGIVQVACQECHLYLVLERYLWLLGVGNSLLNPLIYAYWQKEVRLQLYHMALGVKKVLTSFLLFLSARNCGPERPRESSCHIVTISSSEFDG
Assay: cAMP accumulation assay (Cisbio cAMP Gs dynamic HTRF kit) in CHO-K1 cells stably expressing human GPR119
Format: cell-based
Details: 4-parameter fit; for Emax: 1 h, % activity normalized to Max and Min controls; for pEC50: 60 minutes at 37° C.
Protocol: CHO-K1 cells stably expressing human GPR119 (hGPR119) were prepared by transfection of a GPR119-carrying plasmid using Lipofectamine 2000 (following manufacturer instructions). A stable cell line was established using the limiting dilution method with geneticine selection. Assay-ready frozen (ARF) cells were prepared and used throughout the study.
The assay was performed in a 384-well plate format using the cAMP Gs dynamic assay kit from Cisbio. ARF cells expressing hGPR119 were thawed, washed and then resuspended in cAMP stimulation buffer at a cell density of 1.1×10^6 cells/mL. Cells were plated at a density of ˜10,000 cells/well (9 μL/well). Dose response curves for the tested compounds were prepared in a cAMP stimulation buffer, containing 0.1% Tween 80 at 4 fold the final concentration. The compounds were then transferred to the cell plates using BRAVO (3 μL/well) and the plates were incubated for 60 minutes at 37° C./5% CO2. Detection buffer (10 μL, prepared as described in the cAMP Gs dynamic kit) were added to each well, and the plates were incubated at ambient temperature for 1 hr.
RT-FRET was measured using a ClarioSTAR plate reader, calculating the ratio between emissions at 665 nm and 620 nm (HTRF ratio). The HTRF ratio for positive (Max) and negative (Min) controls were used to normalize HTRF data and generate values for % activity. EC50 and Max activity values were determined using a standard 4-parameter fit.

Emax [%]	pEC50	Compound
100 to 130	≥ 7.00	O=C(Cc1ccc(OCCCC2CCN(c3ncc(Cl)cn3)CC2)cc1F)N1C[C@H]2CCN(C[C@H](O)[C@@H](O)[C@H](O)[C@H](O)CO)[C@H]2C1 [Example 65, 2-(4-(3-(1-(5-chloropyrimidin-2-yl)piperidin-4-yl)propoxy)-2-fluorophenyl)-1-((3aR,6aR)-1-((2S,3R,4R,5R)-2,3,4,5,6-pentahydroxyhexyl)hexahydropyrrolo[3,4-b]pyrrol-5(1H)-yl)ethan-1-one]
100 to 130	≥ 7.00	O=C(Cc1ccc(OCCCC2CCN(c3ncc(Cl)cn3)CC2)cc1F)N1C[C@H]2CCN(C[C@H](O)[C@H](O)[C@H](O)CO)[C@H]2C1 [Example 64, 2-(4-(3-(1-(5-chloropyrimidin-2-yl)piperidin-4-yl)propoxy)-2-fluorophenyl)-1-((3aR,6aR)-1-((2S,3S,4R)-2,3,4,5-tetrahydroxypentyl)hexahydropyrrolo[3,4-b]pyrrol-5(1H)-yl)ethan-1-one]
100 to 130	≥ 7.00	O=C(Cc1ccc(OCCCC2CCN(c3ncc(Cl)cn3)CC2)cc1F)N1CCC2(CCN(C[C@H](O)[C@H](O)[C@H](O)CO)C2)C1 (stereo partly drawn) [Example 42, 2-(4-(3-(1-(5-chloropyrimidin-2-yl)piperidin-4-yl)propoxy)-2-fluorophenyl)-1-(7-((2S,3S,4R)-2,3,4,5-tetrahydroxypentyl)-2,7-diazaspiro[4.4]nonan-2-yl)ethan-1-one]
100 to 130	≥ 7.00	O=C(Cc1ccc(OCCCC2CCN(c3ncc(Cl)cn3)CC2)cc1F)N1CC2(CCN2C[C@H](O)[C@@H](O)[C@H](O)[C@H](O)CO)C1 [Example 33, 2-(4-(3-(1-(5-chloropyrimidin-2-yl)piperidin-4-yl)propoxy)-2-fluorophenyl)-1-(1-((2S,3R,4R,5R)-2,3,4,5,6-pentahydroxyhexyl)-1,6-diazaspiro[3.3]heptan-6-yl)ethan-1-one]
≥ 130	≥ 7.00	O=C(Cc1ccc(OCCCC2CCN(c3ncc(Cl)cn3)CC2)cc1F)N1CC2(CCC2NC[C@H](O)[C@H](O)[C@H](O)CO)C1 (stereo partly drawn) [Example 78, 2-(4-(3-(1-(5-chloropyrimidin-2-yl)piperidin-4-yl)propoxy)-2-fluorophenyl)-1-(5-(((2S,3S,4R)-2,3,4,5-tetrahydroxypentyl)amino)-2-azaspiro[3.3]heptan-2-yl)ethan-1-one]
≥ 130	≥ 7.00	O=C(Cc1ccc(OCCCC2CCN(c3ncc(Cl)cn3)CC2)cc1F)N1C[C@@H]2CCN(C[C@H](O)[C@H](O)[C@H](O)CO)[C@@H]2C1 [Example 34, 2-(4-(3-(1-(5-chloropyrimidin-2-yl)piperidin-4-yl)propoxy)-2-fluorophenyl)-1-((3aS,6aS)-1-((2S,3S,4R)-2,3,4,5-tetrahydroxypentyl)hexahydropyrrolo[3,4-b]pyrrol-5(1H)-yl)ethan-1-one]
100 to 130	≥ 7.00	O=C(Cc1ccc(OCCCC2CCN(c3ncc(Cl)cn3)CC2)cc1F)N1CCOC2(CCN(C[C@H](O)[C@H](O)[C@H](O)CO)C2)C1 (stereo partly drawn) [Example 80, 2-(4-(3-(1-(5-chloropyrimidin-2-yl)piperidin-4-yl)propoxy)-2-fluorophenyl)-1-(2-((2S,3S,4R)-2,3,4,5-tetrahydroxypentyl)-6-oxa-2,9-diazaspiro[4.5]decan-9-yl)ethan-1-one]

Further lines, the compound ahead of its results:

Compound	Emax [%]	pEC50
O=C(Cc1ccc(OCCCC2CCN(c3ncc(Cl)cn3)CC2)cc1F)N1CCC2(CC1)CN(C[C@H](O)[C@@H](O)[C@H](O)[C@H](O)CO)C2 [Example 70, 2-(4-(3-(1-(5-chloropyrimidin-2-yl)piperidin-4-yl)propoxy)-2-fluorophenyl)-1-(2-((2S,3R,4R,5R)-2,3,4,5,6-pentahydroxyhexyl)-2,7-diazaspiro[3.5]nonan-7-yl)ethan-1-one]	100 to 130	6.00 to 7.00
O=C(CCCCS(=O)(=O)O)N1CCCN(C(=O)Cc2ccc(OCCCC3CCN(c4ncc(Cl)cn4)CC3)cc2F)CC1 [Example 13, 5-(4-(2-(4-(3-(1-(5-chloropyrimidin-2-yl)piperidin-4-yl)propoxy)-2-fluorophenyl)acetyl)-1,4-diazepan-1-yl)-5-oxopentane-1-sulfonic acid]	100 to 130	6.00 to 7.00
CCOc1cnc(N2CCC(CCCOc3ccc(CC(=O)N4CCN(C[C@H](O)[C@@H](O)[C@H](O)[C@H](O)CO)CC4)c(F)c3)CC2)nc1 [Example 96, 2-(4-(3-(1-(5-ethoxypyrimidin-2-yl)piperidin-4-yl)propoxy)-2-fluorophenyl)-1-(4-((2S,3R,4R,5R)-2,3,4,5,6-pentahydroxyhexyl)piperazin-1-yl)ethan-1-one]	100 to 130	6.00 to 7.00
O=C(Cc1ccc(OCCCC2CCN(c3ncc(Cl)cn3)CC2)cc1F)N1CCC2(CN(C[C@H](O)[C@H](O)[C@H](O)CO)CCO2)C1 (stereo partly drawn) [Example 72, 2-(4-(3-(1-(5-chloropyrimidin-2-yl)piperidin-4-yl)propoxy)-2-fluorophenyl)-1-(9-((2S,3S,4R)-2,3,4,5-tetrahydroxypentyl)-6-oxa-2,9-diazaspiro[4.5]decan-2-yl)ethan-1-one]	100 to 130	≥ 7.00
O=C(Cc1ccc(OCCCC2CCN(c3ncc(Cl)cn3)CC2)cc1F)N1CC2CC(C1)N2C[C@H](O)[C@@H](O)[C@H](O)[C@H](O)CO [Example 49, 2-(4-(3-(1-(5-chloropyrimidin-2-yl)piperidin-4-yl)propoxy)-2-fluorophenyl)-1-(6-((2S,3R,4R,5R)-2,3,4,5,6-pentahydroxyhexyl)-3,6-diazabicyclo[3.1.1]heptan-3-yl)ethan-1-one]	100 to 130	≥ 7.00
O=C(Cc1ccc(OCCCC2CCN(c3ncc(Cl)cn3)CC2)cc1F)N1CC2CC(C1)N2C[C@H](O)[C@H](O)[C@H](O)CO [Example 48, 2-(4-(3-(1-(5-chloropyrimidin-2-yl)piperidin-4-yl)propoxy)-2-fluorophenyl)-1-(6-((2S,3S,4R)-2,3,4,5-tetrahydroxypentyl)-3,6-diazabicyclo[3.1.1]heptan-3-yl)ethan-1-one]	≥ 130	≥ 7.00
O=C(Cc1ccc(OCCCC2CCN(c3ncc(Cl)cn3)CC2)cc1F)N1CCC2(CCN2C[C@H](O)[C@@H](O)[C@H](O)[C@H](O)CO)C1 (stereo partly drawn) [Example 31, 2-(4-(3-(1-(5-chloropyrimidin-2-yl)piperidin-4-yl)propoxy)-2-fluorophenyl)-1-(1-((2S,3R,4R,5R)-2,3,4,5,6-pentahydroxyhexyl)-1,6-diazaspiro[3.4]octan-6-yl)ethan-1-one]	100 to 130	≥ 7.00
O=C(Cc1ccc(OCCCC2CCN(c3ncc(Cl)cn3)CC2)cc1F)N1CCC2(CCN2C(=O)CCCCS(=O)(=O)O)C1 (centres unmarked) [Example 4, 5-(6-(2-(4-(3-(1-(5-chloropyrimidin-2-yl)piperidin-4-yl)propoxy)-2-fluorophenyl)acetyl)-1,6-diazaspiro[3.4]octan-1-yl)-5-oxopentane-1-sulfonic acid]	100 to 130	≥ 7.00
O=C(Cc1ccc(OCCCCC2CCN(c3ncc(Cl)cn3)CC2)cc1F)N1CCN(C[C@H](O)[C@@H](O)[C@H](O)[C@H](O)CO)CC1 [Example 86, 2-(4-(4-(1-(5-chloropyrimidin-2-yl)piperidin-4-yl)butoxy)-2-fluorophenyl)-1-(4-((2S,3R,4R,5R)-2,3,4,5,6-pentahydroxyhexyl)piperazin-1-yl)ethan-1-one]	100 to 130	≥ 7.00
O=C(Cc1ccc(OCCCC2CCN(c3ncc(Cl)cn3)CC2)cc1F)N1CCOC2(CCN(C[C@H](O)[C@@H](O)[C@H](O)[C@H](O)CO)C2)C1 (stereo partly drawn) [Example 81, 2-(4-(3-(1-(5-chloropyrimidin-2-yl)piperidin-4-yl)propoxy)-2-fluorophenyl)-1-(2-((2S,3R,4R,5R)-2,3,4,5,6-pentahydroxyhexyl)-6-oxa-2,9-diazaspiro[4.5]decan-9-yl)ethan-1-one]	100 to 130	≥ 7.00
O=C(Cc1ccc(OCCCC2CC23CCN(c2ncc(Cl)cn2)CC3)cc1F)N1CCN(C[C@H](O)[C@@H](O)[C@H](O)[C@H](O)CO)CC1 (stereo partly drawn) [Example 109, 2-(4-(3-(6-(5-chloropyrimidin-2-yl)-6-azaspiro[2.5]octan-1-yl)propoxy)-2-fluorophenyl)-1-(4-((2S,3R,4R,5R)-2,3,4,5,6-pentahydroxyhexyl)piperazin-1-yl)ethan-1-one]	100 to 130	6.00 to 7.00
O=C(Cc1ccc(OCCCC2CCN(C(=O)OC3(C(F)(F)F)COC3)CC2)cc1F)N1CCN(C[C@H](O)[C@@H](O)[C@H](O)[C@H](O)CO)CC1 [Example 105, 3-(trifluoromethyl)oxetan-3-yl 4-(3-(3-fluoro-4-(2-oxo-2-(4-((2S,3R,4R,5R)-2,3,4,5,6-pentahydroxyhexyl)piperazin-1-yl)ethyl)phenoxy)propyl)piperidine-1-carboxylate]	100 to 130	6.00 to 7.00
